Data published in ChEMBL document CHEMBL1201862, “PubChem BioAssay data set” (2004).
Calls of active or inactive are those of the source.

Experiments:
[1] = molecular target: T1, Calpain-2 catalytic subunit (Sus scrofa, UniProt P43367); assay: pig calpain II inhibitor potency, dose response, biochemical, fluorogenic peptide substrate (AID 1420); assay type: functional
T1 sequence (P43367 whole entry): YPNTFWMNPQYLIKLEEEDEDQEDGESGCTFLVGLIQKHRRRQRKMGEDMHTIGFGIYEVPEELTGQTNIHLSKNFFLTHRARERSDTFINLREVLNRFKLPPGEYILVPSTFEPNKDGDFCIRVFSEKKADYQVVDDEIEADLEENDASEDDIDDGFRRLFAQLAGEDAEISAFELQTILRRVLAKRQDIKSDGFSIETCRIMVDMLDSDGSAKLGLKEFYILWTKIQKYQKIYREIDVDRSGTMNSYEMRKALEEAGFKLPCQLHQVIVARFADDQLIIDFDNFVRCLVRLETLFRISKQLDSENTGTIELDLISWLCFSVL

[2] = molecular target: T2, Type-1 angiotensin II receptor (Homo sapiens, UniProt P30556); assay: AT1 receptor antagonists, dose response, selectivity assay for APJ receptor antagonist project, cell-based, uHTS hits (AID 463214); assay type: functional;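 further: antagonist potency against angiotensin II stimulated AT1 response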
T2 sequence (P30556 whole entry): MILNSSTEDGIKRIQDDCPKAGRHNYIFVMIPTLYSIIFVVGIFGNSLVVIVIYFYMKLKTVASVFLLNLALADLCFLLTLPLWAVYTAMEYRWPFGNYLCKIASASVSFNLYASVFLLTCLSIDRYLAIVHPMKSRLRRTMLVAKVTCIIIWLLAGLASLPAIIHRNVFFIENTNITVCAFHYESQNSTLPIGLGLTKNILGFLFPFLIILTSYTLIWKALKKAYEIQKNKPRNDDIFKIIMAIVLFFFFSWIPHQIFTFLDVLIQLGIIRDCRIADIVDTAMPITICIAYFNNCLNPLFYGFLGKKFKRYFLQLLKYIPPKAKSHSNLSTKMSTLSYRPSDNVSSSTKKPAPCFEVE

[3] = molecular target: Beta-galactosidase (Escherichia coli, UniProt Q8VNN2); assay: PubChem AID 485352; assay type: functional
[4] = molecular target: Intestinal-type alkaline phosphatase (Mus musculus, UniProt P24822); assay: PubChem AID 488785; assay type: functional
[5] = molecular target: Intestinal-type alkaline phosphatase (Homo sapiens, UniProt P09923); assay: inhibition of human intestinal alkaline phosphatase – biochemical, dose response (AID 488876); assay type: functional
[6] = molecular target: Induced myeloid leukemia cell differentiation protein Mcl-1 (Homo sapiens, UniProt Q07820); assay type: functional
[7] = molecular target: T3, Alkaline phosphatase, tissue-nonspecific isozyme (Homo sapiens, UniProt P05186); assay: TNAP enzyme inhibition by screening hits, dose response, selectivity assay for mouse IAP inhibitor project, biochemical, human TNAP, uHTS hits (AID 488906); assay type: functional
T3 sequence (P05186 whole entry): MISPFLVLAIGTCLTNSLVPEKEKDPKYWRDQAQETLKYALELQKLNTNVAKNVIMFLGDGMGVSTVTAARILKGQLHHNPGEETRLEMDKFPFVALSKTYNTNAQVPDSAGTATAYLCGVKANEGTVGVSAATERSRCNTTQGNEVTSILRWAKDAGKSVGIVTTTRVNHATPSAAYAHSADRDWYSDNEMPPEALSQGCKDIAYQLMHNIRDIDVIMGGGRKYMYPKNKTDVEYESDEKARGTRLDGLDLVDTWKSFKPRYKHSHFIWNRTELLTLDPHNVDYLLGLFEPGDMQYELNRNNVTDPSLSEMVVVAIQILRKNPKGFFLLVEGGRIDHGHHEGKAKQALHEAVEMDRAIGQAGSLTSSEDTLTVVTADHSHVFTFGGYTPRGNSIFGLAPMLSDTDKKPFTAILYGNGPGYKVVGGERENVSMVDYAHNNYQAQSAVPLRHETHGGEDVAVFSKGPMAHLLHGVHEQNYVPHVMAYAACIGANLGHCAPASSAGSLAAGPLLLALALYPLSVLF

[8] = molecular target: Large T antigen (Simian virus 40, UniProt P03070); assay type: functional, Betapolyomavirus macacae;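 further: Confirmatory-stage PubChem screen for compounds that inhibit SV40 T antigen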
[9] = molecular target: Melanocortin receptor 4 (Homo sapiens, UniProt P32245); assay type: functional, cell-based;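 further: Cell-based assay with luminescence read-out, confirmatory dose-response testing for agonist activity of biased ligands at MC4R; human U2OS cells with tagged receptor and beta-arrestin; potency of agonists that increase receptor coupling to beta-arrestin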
[10] = molecular target: T4, Mannose-6-phosphate isomerase (Homo sapiens, UniProt P34949); assay: human PMI inhibitors, high substrate, primary screen, biochemical, fluorescence intensity, high mannose 6-phosphate (AID 1220)
T4 sequence (P34949 whole entry): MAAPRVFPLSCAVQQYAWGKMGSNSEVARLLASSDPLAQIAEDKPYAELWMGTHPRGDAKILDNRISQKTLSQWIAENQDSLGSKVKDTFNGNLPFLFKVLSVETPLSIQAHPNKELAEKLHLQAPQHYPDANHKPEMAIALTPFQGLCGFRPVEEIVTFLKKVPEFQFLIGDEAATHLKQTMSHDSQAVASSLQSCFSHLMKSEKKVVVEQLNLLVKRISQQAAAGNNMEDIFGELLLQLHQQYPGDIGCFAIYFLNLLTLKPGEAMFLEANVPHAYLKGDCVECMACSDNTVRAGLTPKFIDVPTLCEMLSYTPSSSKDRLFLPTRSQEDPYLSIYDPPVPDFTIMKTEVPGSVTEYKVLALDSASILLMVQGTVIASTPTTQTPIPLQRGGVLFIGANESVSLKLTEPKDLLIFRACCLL

[11] = molecular target: Heat shock protein HSP 90-alpha (Homo sapiens, UniProt P07900); assay type: functional, organism-based
[12] = C. albicans growth with fluconazole, confirmation, fluorescence, retest (AID 2467); assay type: functional, cell-based
[13] = NIH-3T3 fibroblast cytotoxicity, dose response, cytotoxicity control, cell-based, fluorescence, Alamar Blue, secondary assay (AID 2327); assay type: functional;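 further: NIH-3T3 mouse fibroblasts cultured with fluconazole at 8 µg/mL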
[14] = molecular target: Genome polyprotein (dengue virus type 2, UniProt P29990); assay: Dengue-2 NS5 methyltransferase inhibitors, primary screen, biochemical, confirmation dose response (AID 588689); assay type: functional
[15] = molecular target: T5, Serine/threonine-protein phosphatase (Candida dubliniensis (strain CD36 / CBS 7987 / NCPF 3949 / NRRLY-17841) (Yeast), UniProt B9W6M3); assay: Fluorescence Cell-Based Secondary Assay to Identify Inhibitors of Calcineurin. [Related pubchem assays (depositor defined):AID1979, AID2007]; assay type: functional
T5 sequence (B9W6M3 whole entry): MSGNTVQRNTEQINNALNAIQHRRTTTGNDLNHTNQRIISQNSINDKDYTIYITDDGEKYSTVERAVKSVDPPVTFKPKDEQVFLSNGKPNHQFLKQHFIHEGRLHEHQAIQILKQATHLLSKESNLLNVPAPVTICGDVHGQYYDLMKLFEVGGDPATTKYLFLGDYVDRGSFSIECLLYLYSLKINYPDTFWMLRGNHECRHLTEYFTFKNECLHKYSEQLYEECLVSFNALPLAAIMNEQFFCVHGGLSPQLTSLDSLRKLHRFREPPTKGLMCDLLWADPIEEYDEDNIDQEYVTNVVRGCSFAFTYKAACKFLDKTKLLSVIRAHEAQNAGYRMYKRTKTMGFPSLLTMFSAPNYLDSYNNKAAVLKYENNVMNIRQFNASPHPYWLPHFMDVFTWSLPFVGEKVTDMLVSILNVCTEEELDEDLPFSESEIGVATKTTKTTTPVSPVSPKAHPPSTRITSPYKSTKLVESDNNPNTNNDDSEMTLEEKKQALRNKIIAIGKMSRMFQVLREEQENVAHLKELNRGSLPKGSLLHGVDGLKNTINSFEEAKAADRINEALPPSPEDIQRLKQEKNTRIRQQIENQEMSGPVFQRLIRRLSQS

[16] = molecular target: Hepatocyte nuclear factor 4-alpha (Homo sapiens, UniProt P41235); assay type: functional, cell-based;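 further: biochemical luminescence-based dose-response counterscreen measuring inhibition of HNF4 dimerization, run alongside a screen for blockers of ABHD5–perilipin-5 interaction; split luciferase complementation of HNF4 fusion proteins in cell lysate measuring dimerization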
[17] = molecular target: T5, Serine/threonine-protein phosphatase; assay: calcineurin pathway inhibitors in yeast reporter, dose response, S. cerevisiae, CDRE-lacZ, luminescence, secondary (AID 2388); assay type: functional, cell-based;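 further: yeast reporter cells carrying a calcineurin-responsive lacZ construct stimulated with calcium chloride; luminescent beta-galactosidase reporter signal in whole cells rather than isolated phosphatase activity; potency for inhibition where a drop in reporter signal means calcineurin blockade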
[18] = molecular target: ATP-dependent molecular chaperone HSP82 (Candida albicans (strain WO-1) (Yeast), UniProt C4YTQ8); assay: loss of DOC-induced GRE-beta-galactosidase reporter signal, dose response, Hsp90 inhibitor project, S. cerevisiae, luminescence (AID 2400); assay type: functional, cell-based;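 further: beta-galactosidase luminescence from glucocorticoid response element reporter as proxy for Hsp90 function; inhibitor potency where signal loss means Hsp90 inhibition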
[19] = molecular target: Glucose-6-phosphate 1-dehydrogenase (Homo sapiens, UniProt P11413); assay: human G6PD enzyme inhibitors, dose response, selectivity assay for P. falciparum G6PD inhibitor project, biochemical, fluorescence (AID 504792); assay type: functional
[20] = molecular target: Delta-type opioid receptor (Homo sapiens, UniProt P41143); assay: Counterscreen for agonists of heterodimerization of the mu 1 (OPRM1) and delta 1 (OPRD1) opioid receptors: Luminescence-based cell-based high throughput dose response assay to identify agonists of OPRD1 homodimerization. [Related pubchem assays (depositor defined):AID504326, AID504355, AID504692, AID504904, AID504905]; assay type: functional
[21] = molecular target: Mu-type opioid receptor (Homo sapiens, UniProt P35372); assay: Counterscreen for agonists of heterodimerization of the mu 1 (OPRM1) and delta 1 (OPRD1) opioid receptors: Luminescence-based cell-based high throughput dose response assay to identify agonists of OPRM1 homodimerization.; assay type: functional;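 further: U2OS cells expressing OPRM1 and beta-arrestin as split beta-galactosidase partners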
[22] = molecular target: 5-hydroxytryptamine receptor 5A (Homo sapiens, UniProt P47898); assay: Counterscreen for agonists of OPRM1-OPRD1 heterodimerization: luminescence-based cell-based high throughput dose response assay to identify agonists of 5-hydroxytryptamine (serotonin) 5A receptor (HTR5A). [Related pubchem assays (depositor defined):AID504326, AID504355, AID504692, AID504904, AID504905]; assay type: functional
[23] = molecular target: T6, Short transient receptor potential channel 4 (Mus musculus, UniProt Q9QUQ5); assay: mouse TRPC4 channel activators, dose response, cell-based, HEK293 TRPC4/mu-opioid, Fluo-4 calcium (AID 434937); assay type: functional
T6 sequence (Q9QUQ5 whole entry): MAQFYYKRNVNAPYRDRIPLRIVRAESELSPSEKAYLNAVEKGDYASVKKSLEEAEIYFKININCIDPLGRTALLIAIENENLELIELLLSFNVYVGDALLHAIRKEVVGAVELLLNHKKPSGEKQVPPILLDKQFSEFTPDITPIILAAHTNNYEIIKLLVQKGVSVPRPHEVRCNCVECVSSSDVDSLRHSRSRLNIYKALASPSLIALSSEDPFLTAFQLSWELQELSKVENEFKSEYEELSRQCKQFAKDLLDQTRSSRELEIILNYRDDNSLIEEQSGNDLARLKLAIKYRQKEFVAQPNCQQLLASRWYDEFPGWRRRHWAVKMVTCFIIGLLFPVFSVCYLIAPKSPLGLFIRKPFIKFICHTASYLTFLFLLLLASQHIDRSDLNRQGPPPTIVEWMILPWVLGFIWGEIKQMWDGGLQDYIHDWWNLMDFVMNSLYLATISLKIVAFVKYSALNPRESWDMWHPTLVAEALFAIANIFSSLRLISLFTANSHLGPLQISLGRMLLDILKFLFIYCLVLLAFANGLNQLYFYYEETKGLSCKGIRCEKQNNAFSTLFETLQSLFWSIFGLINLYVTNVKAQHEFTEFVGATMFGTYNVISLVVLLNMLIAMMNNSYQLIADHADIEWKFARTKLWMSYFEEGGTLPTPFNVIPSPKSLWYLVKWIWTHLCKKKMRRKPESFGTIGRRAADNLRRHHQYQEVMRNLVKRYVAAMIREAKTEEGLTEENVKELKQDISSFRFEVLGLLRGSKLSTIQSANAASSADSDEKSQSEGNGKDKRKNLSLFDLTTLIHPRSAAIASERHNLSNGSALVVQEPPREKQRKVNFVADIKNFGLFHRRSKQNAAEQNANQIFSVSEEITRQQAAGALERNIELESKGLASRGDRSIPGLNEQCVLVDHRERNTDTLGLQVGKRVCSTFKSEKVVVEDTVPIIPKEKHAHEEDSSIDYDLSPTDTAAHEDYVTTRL

Chain of 5-hydroxytryptamine receptor 5A (P47898 whole entry): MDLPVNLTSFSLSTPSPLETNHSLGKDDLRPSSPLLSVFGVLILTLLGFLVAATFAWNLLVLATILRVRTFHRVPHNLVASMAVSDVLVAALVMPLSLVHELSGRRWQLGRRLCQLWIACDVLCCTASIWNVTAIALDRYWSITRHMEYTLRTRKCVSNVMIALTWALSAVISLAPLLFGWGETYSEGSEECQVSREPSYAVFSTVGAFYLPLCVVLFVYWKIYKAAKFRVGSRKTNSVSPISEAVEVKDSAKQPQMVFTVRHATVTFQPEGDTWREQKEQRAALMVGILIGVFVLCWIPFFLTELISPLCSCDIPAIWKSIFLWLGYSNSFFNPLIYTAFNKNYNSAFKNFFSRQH
Chain of Mu-type opioid receptor (P35372 whole entry): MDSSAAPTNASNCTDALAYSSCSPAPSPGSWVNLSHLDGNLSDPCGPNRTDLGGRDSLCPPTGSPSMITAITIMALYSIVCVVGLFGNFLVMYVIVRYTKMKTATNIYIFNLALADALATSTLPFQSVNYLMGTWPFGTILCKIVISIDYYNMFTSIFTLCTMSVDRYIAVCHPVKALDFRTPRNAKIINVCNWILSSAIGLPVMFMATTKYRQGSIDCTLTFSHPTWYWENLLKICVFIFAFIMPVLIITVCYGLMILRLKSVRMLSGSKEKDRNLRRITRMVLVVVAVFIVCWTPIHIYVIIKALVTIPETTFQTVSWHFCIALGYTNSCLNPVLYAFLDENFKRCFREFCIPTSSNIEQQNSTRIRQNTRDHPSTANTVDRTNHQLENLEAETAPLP
Chain of Delta-type opioid receptor (P41143 whole entry): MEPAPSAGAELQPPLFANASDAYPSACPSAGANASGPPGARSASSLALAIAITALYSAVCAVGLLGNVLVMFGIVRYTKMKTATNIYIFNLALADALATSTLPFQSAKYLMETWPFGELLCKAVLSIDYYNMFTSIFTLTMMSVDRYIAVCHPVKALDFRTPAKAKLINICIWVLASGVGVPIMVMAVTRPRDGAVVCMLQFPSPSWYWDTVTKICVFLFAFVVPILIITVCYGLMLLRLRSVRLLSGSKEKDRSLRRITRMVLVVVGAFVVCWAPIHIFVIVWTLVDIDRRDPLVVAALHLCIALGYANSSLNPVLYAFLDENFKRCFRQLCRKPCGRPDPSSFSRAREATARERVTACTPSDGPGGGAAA
Chain of Large T antigen (P03070 whole entry): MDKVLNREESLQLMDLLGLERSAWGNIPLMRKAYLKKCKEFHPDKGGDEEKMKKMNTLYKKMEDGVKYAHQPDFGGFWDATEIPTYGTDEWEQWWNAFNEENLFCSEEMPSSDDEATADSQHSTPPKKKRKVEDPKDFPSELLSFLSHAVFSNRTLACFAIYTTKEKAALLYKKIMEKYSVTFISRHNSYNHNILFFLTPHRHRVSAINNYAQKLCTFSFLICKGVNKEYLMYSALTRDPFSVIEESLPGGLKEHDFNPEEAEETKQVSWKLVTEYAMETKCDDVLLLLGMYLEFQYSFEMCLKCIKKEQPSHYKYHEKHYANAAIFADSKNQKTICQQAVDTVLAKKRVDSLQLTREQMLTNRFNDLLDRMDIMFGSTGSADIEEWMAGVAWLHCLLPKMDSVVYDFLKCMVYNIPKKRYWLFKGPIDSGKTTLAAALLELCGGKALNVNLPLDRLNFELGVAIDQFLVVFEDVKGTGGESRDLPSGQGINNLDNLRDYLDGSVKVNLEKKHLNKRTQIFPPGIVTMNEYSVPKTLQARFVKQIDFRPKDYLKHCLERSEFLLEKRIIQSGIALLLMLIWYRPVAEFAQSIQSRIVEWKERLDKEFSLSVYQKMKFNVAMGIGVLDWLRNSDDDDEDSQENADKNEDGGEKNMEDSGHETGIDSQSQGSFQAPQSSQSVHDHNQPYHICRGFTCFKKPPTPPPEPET
Chain of Beta-galactosidase (Q8VNN2 whole entry): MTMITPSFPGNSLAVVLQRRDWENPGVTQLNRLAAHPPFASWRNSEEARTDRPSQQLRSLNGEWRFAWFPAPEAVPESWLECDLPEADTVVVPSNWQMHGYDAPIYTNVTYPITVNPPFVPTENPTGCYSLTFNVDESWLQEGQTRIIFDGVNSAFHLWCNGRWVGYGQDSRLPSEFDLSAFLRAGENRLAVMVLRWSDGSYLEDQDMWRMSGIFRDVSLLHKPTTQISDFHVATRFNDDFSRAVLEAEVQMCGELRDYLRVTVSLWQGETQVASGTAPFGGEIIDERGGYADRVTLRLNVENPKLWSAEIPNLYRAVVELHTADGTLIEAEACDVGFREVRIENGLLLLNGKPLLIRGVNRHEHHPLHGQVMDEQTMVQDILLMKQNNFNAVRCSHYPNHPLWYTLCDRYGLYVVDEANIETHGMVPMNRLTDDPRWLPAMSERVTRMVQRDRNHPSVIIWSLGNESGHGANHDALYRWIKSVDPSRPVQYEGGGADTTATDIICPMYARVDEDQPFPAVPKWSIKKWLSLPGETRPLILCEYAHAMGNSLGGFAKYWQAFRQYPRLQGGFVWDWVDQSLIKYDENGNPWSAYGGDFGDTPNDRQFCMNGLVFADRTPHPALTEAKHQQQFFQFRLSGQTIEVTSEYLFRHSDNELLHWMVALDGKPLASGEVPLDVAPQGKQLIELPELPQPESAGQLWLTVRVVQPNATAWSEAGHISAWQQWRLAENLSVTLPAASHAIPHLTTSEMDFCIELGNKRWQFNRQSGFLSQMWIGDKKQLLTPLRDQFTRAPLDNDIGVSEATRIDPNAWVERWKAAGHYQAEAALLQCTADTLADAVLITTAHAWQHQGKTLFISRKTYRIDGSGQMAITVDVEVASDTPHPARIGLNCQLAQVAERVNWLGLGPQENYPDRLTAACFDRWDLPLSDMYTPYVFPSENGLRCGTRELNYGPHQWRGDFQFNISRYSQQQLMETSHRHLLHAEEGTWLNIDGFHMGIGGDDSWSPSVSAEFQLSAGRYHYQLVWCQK
Chain of Induced myeloid leukemia cell differentiation protein Mcl-1 (Q07820 whole entry): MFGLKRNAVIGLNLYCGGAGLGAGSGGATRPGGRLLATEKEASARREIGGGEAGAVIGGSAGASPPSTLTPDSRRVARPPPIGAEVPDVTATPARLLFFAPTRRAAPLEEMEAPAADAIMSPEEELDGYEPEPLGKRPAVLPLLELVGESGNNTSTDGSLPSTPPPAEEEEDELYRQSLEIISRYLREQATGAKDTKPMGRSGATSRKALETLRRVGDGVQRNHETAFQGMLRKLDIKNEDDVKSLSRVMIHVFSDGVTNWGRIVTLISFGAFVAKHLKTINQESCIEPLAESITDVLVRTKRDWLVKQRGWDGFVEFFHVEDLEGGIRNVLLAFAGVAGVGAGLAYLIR
Chain of ATP-dependent molecular chaperone HSP82 (C4YTQ8 whole entry): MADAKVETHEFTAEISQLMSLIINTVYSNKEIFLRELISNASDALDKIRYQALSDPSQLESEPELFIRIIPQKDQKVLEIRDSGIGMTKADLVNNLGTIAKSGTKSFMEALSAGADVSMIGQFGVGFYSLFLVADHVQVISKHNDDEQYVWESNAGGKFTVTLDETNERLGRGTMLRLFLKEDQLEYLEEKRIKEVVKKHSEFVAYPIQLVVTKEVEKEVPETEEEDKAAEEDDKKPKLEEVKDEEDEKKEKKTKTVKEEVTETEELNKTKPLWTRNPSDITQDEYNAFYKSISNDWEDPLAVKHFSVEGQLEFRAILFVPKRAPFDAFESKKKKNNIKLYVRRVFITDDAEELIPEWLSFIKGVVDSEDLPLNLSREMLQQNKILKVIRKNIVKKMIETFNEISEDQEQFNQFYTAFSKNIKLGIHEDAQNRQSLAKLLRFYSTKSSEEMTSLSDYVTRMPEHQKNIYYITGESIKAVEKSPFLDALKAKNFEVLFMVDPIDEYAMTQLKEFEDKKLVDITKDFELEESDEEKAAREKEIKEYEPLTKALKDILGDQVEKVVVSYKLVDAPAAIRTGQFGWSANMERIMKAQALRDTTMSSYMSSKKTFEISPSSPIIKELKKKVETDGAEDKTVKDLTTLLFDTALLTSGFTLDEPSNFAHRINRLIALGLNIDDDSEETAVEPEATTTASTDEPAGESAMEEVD
Chain of Glucose-6-phosphate 1-dehydrogenase (P11413 whole entry): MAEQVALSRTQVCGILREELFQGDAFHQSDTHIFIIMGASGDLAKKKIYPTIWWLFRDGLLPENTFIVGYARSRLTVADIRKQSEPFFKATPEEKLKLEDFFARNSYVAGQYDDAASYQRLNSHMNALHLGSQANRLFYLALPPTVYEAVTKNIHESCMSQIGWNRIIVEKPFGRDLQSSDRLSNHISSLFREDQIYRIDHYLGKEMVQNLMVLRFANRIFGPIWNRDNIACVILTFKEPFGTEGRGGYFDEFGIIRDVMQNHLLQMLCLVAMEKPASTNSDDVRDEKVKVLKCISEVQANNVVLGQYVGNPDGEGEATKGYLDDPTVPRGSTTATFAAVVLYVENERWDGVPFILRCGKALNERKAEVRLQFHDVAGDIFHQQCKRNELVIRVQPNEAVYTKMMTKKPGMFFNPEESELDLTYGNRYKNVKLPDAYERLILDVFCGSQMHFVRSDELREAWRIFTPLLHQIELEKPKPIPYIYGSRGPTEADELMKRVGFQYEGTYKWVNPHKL
Chain of Hepatocyte nuclear factor 4-alpha (P41235 whole entry, the tested form may be a part): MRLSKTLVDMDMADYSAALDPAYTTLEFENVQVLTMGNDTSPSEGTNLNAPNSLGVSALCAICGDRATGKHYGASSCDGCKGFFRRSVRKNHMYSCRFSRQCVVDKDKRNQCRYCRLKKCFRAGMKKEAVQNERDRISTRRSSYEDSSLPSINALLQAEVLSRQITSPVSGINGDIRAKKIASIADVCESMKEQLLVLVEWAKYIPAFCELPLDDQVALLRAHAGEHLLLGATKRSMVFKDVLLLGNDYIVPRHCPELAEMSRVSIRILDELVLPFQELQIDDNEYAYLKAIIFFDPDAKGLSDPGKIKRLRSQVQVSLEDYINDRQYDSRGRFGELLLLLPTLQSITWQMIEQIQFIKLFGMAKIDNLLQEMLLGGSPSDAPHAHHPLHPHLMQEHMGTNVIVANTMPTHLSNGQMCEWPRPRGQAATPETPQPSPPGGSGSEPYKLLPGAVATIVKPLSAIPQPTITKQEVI

In the case of CCN(CC)c1ccc(C(=O)NC(=S)Nc2cc(S(=O)(=O)N3CCOCC3)ccc2-n2cncn2)cc1, the IC50 [1] is reported as 9.89 µM (not active), the IC50 [2] is reported as > 40 µM (not active) and the EC50 [3] is reported as > 40 µM (inactive).
With O=C1CC(c2ccc(O)c(O)c2)Oc2c1ccc(O)c2O (stereo unspecified) the IC50 [4] was 14.8 µM (active), the IC50 [5] was 24.8 µM (active) and the IC50 [6] was 2.99 µM (active). The IC50 [7] was > 100 µM (inactive) and the IC50 [8] was 1.91 µM (active).
For Cc1ccc(C(=O)c2coc3c2C(=O)C(=O)c2ccccc2-3)cc1, the EC50 [9] was > 89.2 µM (inactive), the IC50 [10] was > 50 µM (not active) and the AC50 [11] was 3.84 µM (active). The EC50 [12] was 0.983 µM (active), the EC50 [13] was 27.9 µM (active) and the IC50 [14] was 55 µM (active). The EC50 [15] was 9.27 µM (active), the IC50 [16] was 3.8 µM (active) and the EC50 [17] was 3.78 µM (active). The EC50 [18] was 1.21 µM (active).
In the case of Cc1ccc(/C=C/C(=O)N2CCN(S(=O)(=O)c3ccc(C)c(C)c3)CC2)o1, the IC50 [19] is reported as > 80 µM (inactive).
In the case of CN(C)C(CN=C(S)Nc1ccccc1Cl)c1cccnc1 (stereo unspecified), the EC50 [20] is reported as 26.9 µM (inactive), the EC50 [21] is reported as 3.64 µM (active) and the EC50 [22] is reported as > 92.5 µM (inactive). The EC50 [23] was 0.0333 µM (active).
With CCOC(=O)C1(c2ccccc2)CCN(CCC(=O)Nc2ccc(F)cc2)CC1 the EC50 [20] was > 92.5 µM (inactive), the EC50 [21] was > 92.5 µM (inactive) and the EC50 [22] was > 92.5 µM (inactive).
